The record followed here is paper PMC5104457, “ATP-Competitive MLKL Binders Have No Functional Impact on Necroptosis” (PLoS ONE, 2016).

One test addresses T1, RIPK3 kinase domain (Homo sapiens, UniProt Q9Y572).
T1 construct: purchased DiscoverX
The test is described as follows: ATP-competitive probe displacement assay, RIPK3. The class given is binding. To be noted: average of duplicates. How it is done: (§1) Compound binding constants (KDs) were determined at DiscoverX using their KINOMEscan assay platform. This competition binding assay was previously described in Karaman et al. (2008)[18]. Briefly, full length MLKL was expressed in HEK-293 cells as a fusion with an NFκB DNA binding domain and subsequently tagged with a qPCR detection amplicon via interaction with NFκB. […] Twenty microliters of binding reactions were carried out in 384-well polypropylene plates for 1 hour at room temperature. Beads were subsequently washed and resuspended in elution buffer for 30 minutes at room temperature with shaking. The concentration of MLKL in the eluates was measured by qPCR and compound binding constants were calculated using a standard dose-response curve.
(§2) A similar approach was used to measure binding affinities for RIPK1 and RIPK3 kinase domains.

In another test the target is T2, full length MLKL (Homo sapiens, UniProt Q8NB16).
T2 construct: purchased DiscoverX (KINOMEscan service); host or cells: HEK-293
T2 sequence (Q8NB16 1-471): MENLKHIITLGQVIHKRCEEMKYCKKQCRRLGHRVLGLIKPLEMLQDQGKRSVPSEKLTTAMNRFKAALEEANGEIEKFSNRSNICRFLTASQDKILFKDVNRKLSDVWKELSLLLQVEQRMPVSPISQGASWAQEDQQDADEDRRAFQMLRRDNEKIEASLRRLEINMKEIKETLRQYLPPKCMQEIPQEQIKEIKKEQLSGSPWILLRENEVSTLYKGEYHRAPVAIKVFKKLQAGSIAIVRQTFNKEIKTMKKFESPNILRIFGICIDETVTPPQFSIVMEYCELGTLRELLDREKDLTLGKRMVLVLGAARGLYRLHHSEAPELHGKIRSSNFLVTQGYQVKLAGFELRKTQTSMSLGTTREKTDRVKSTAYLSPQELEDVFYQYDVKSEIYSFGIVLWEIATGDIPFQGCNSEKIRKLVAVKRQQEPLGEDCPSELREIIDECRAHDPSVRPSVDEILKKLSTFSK
The test is described as follows: KINOMEscan ATP-competitive probe displacement (competition binding) assay, MLKL. The conditions noted are these: average of duplicates. Here is the method:
as §1, with “This competition binding assay was previously described in Karaman et al. (2008)[18].” left out
as §2

The next test addresses T3, pseudokinase His-MLKL-1 (Homo sapiens, UniProt Q8NB16).
T3 construct: sub-cloning residues 191 to 471 of the pseudokinase domain of human MLKL cDNA; made in house; host or cells: Escherichia coli BL21 (DE3)
T3 sequence (Q8NB16 191-471): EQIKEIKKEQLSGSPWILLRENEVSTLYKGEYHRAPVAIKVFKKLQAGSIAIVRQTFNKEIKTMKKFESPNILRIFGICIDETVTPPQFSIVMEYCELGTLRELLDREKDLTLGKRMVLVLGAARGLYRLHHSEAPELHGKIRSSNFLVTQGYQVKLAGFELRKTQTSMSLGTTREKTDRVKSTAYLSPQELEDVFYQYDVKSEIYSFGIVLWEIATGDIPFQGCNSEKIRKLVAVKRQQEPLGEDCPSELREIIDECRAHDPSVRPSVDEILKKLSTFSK
The test can be described thus: Second harmonic generation (SHG) conformational assay, MLKL pseudokinase domain. The conditions noted are these: 10 μM compound; MLKL construct not given. An excerpt:
MLKL-1 was constructed by sub-cloning residues 191 to 471 of the pseudokinase domain of human MLKL cDNA into a pET15b vector with a thrombin cleavable N-terminal six histidine fusion tag (His-MLKL-1). MLKL-2 had the same protein boundaries and fusion tag system as MLKL-1 but the dual mutations E366A and K367A were introduced using site directed mutagenesis and was expressed in the same vector (His-MLKL-2). These residues were identified as having high surface entropy and were mutated to alanine to improve crystal packing.
The labeling reaction was performed according to manufacturer’s instructions. […]
Experiments were performed on a Biodesy Delta System. […] The fundamental is directed to an arrangement of prisms integrated with the custom, glass-bottomed Biodesy Delta Read Plates, where it undergoes total internal reflection (TIR) to generate the evanescent field at the glass-lipid bilayer interface. […] The fundamental light is filtered out leaving only the SH light which is detected by a photomultiplier tube and processed with custom electronics. […] Ligand injection into the read plate is accomplished with an on-board 8-channel MEMS-based electronic pipetting system, enabling high speed and accuracy. […]
In addition, all experiments included a control buffer injection that was used to determine the significant threshold for SHG intensity change and was calculated in a similar manner. […]

The next test has as its target T4, RIPK1 kinase domain (Homo sapiens, UniProt Q13546).
T4 construct: purchased DiscoverX
T4 sequence (Q13546 17-289 limits assumed): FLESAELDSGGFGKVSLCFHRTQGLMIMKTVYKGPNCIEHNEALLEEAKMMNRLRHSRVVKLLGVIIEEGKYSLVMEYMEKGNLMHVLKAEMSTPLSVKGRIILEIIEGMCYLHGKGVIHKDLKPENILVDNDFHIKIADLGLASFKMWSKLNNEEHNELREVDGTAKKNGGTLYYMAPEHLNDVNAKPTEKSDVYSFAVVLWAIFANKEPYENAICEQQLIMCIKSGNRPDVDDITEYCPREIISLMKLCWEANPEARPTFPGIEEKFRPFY
The test is described as follows: ATP-competitive probe displacement assay, RIPK1. It counts as binding. To be noted: average of duplicates. Here is the method: as §1, §2

Bounds are passed on as bounds.

T1 sequence (Q9Y572 21-287 limits assumed): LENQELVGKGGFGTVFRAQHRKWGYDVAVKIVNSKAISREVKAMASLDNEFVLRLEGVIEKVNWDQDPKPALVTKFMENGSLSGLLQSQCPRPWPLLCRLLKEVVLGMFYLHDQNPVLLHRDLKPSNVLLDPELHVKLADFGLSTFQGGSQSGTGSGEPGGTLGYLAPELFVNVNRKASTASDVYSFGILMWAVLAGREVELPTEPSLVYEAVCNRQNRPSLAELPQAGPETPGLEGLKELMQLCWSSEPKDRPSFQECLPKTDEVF

Consider `Nc1nccnc1C(=O)O[C@H](C(=O)Nc1ccc(F)cc1)c1ccccc1` [cpd 5], for which the Kd at RIPK3 kinase domain is over 30 µM; on full length MLKL it was 7.6 µM; on RIPK1 kinase domain, over 30 µM. Also, on pseudokinase His-MLKL-1, the “change in SHG intensity (in words)” value is “no change from baseline”.

By Kd is commonly meant the concentration at which binding is half-saturated. A lower Kd goes with a tighter complex.
